Experimental data reported in US7855189B2, “N-phenylphosphoric acid triamides, method for the production thereof and their use as agents for regulating or inhibiting enzymatic urea hydrolysis” (SKW Stickstoffwerke Piesteritz GmbH, priority 2004, dated 2010).
Marks after values point to notes of the source that are not given here.

System: urease
Experiment: Testing for urease-inhibiting effect in soil (NH3-N release from urea)
Type: biochemical
Settings: 30 g soil at 40% of max water capacity, 50 mg urea
Protocol: 30 g soil set to 40% of the maximum water capacity are added with 1 ml urea solution corresponding to 50 mg urea. At the same time the active substance is applied, preferably dissolved in the urea solution. The concentration details for the individual tested active substances given in the following table relate to the quantity of carbamide nitrogen used in the test. The soil, on the surface of which the urea solution (with and without the active substance) is applied is located in an airtight sealed container into which a receiver is inserted at the same time which collects the ammonia released from the urea as ammonium. By rinsing the receiver daily and analysing the NH4—N quantities contained, the NH3—N-release from the urea is determined.
From the summation of the ammonium quantities in the receiver, the percentage inhibition of the urea hydrolysis dependently upon time is calculated and from these values the t50 value is determined mathematically.
The t50 value is understood to be the time in days since the start of the test at which the urea hydrolysis inhibition is still 50%.

| Compound | urease inhibition t50 value (time in days at which the urea hydrolysis inhibition is still 50%) (conc. 0.5 % HS-N-related (in relation to urea nitrogen used)) | urease inhibition t50 value (time in days at which the urea hydrolysis inhibition is still 50%) (conc. 0.05 % HS-N-related (in relation to urea nitrogen used)) |
| --- | --- | --- |
| Cc1cccc(NP(N)(N)=O)c1 [Compound 2, N-(3-methylphenyl)phosphoric acid triamide] | 11.2 days |  |
| NP(N)(=O)Nc1ccccc1[N+](=O)[O-] [Compound 1, N-(2-nitrophenyl)phosphoric acid triamide] |  | >25^b) d |
